Results reported in paper PMC6013247, “Preclinical characterization of INCB053914, a novel pan-PIM kinase inhibitor, alone and in combination with anticancer agents, in models of hematologic malignancies” (PLoS ONE, 2018).

What was measured:
[1] = test system: KMS-11; assay: Cell proliferation assay ([3H]-thymidine); type: cell-based; details: KMS-11 (MM)
Experimental: (§1) The antiproliferative effects of INCB053914 on hematologic tumor cells were investigated using assays described in the Supporting Information (S2 File).
(§2) Cell proliferation assays. […] After 3 to 4 days, [^3H]-thymidine (1 μCi/well) (PerkinElmer) in PBS (10 μl) was added to the cell culture for an additional 12 hours. The incorporated radioactivity was separated by filtration with water through GF/B filters (Packard Bioscience, Meriden, Connecticut) and measured by liquid scintillation counting with a TopCount (Packard Bioscience).

[2] = test system: OCI-LY-19; assay: Cell proliferation assay ([3H]-thymidine); type: cell-based; details: OCI-LY-19 (DLBCL)
Experimental: as §1, §2

[3] = test system: SUDHL-1; assay: Cell proliferation assay ([3H]-thymidine); type: cell-based; details: Homo sapiens, SU-DHL-1; SUDHL-1 (DLBCL); read-out: Mean (± SD) GI50
Experimental: as §1, §2

[4] = test system: HBL-1; assay: Cell proliferation assay ([3H]-thymidine); type: cell-based; details: HBL1; HBL-1 (DLBCL); read-out: Mean (± SD) GI50
Experimental: as §1, §2

[5] = test system: Reh; assay: Cell proliferation assay ([3H]-thymidine); type: cell-based; details: Reh (T-ALL)
Experimental: as §1, §2

[6] = test system: NOMO1; assay: Cell proliferation assay ([3H]-thymidine); type: cell-based; details: NOMO1 (AML)
Experimental: as §1, §2

[7] = test system: KMS-28-BM; assay: Cell proliferation assay ([3H]-thymidine); type: cell-based; details: KMS-28-BM (MM)
Experimental: as §1, §2

[8] = test system: Toledo; assay: Cell proliferation assay ([3H]-thymidine); type: cell-based; details: Toledo (DLBCL)
Experimental: as §1, §2

[9] = test system: MV-411; assay: Cell proliferation assay ([3H]-thymidine); type: cell-based; details: MV-411 (AML)
Experimental: as §1, §2

[10] = test system: U2932; assay: Cell proliferation assay ([3H]-thymidine); type: cell-based; details: U2932 (DLBCL)
Experimental: as §1, §2

[11] = test system: CCRF-CEM; assay: Cell proliferation assay ([3H]-thymidine); type: cell-based; details: Homo sapiens; CCRF-CEM (T-ALL); read-out: Mean (± SD) GI50
Experimental: as §1, §2

[12] = test system: RPMI-6666; assay: Cell proliferation assay ([3H]-thymidine); type: cell-based; details: Homo sapiens; RPMI-6666 (HL); read-out: Mean (± SD) GI50
Experimental: as §1, §2

[13] = test system: EOL; assay: Cell proliferation assay ([3H]-thymidine); type: cell-based; details: EOL (AML)
Experimental: as §1, §2

[14] = test system: GDM-1; assay: Cell proliferation assay ([3H]-thymidine); type: cell-based; details: Homo sapiens; GDM-1 (AML); read-out: Mean (± SD) GI50
Experimental: as §1, §2

[15] = test system: KARPASS-422; assay: Cell proliferation assay ([3H]-thymidine); type: cell-based; details: read-out: Mean (± SD) GI50
Experimental: as §1, §2

[16] = target: EPHB4 (Homo sapiens, UniProt P54760); assay: Kinase selectivity panel; type: biochemical; details: [ATP] = 1 mM
Sequence of EPHB4 (P54760 16-987): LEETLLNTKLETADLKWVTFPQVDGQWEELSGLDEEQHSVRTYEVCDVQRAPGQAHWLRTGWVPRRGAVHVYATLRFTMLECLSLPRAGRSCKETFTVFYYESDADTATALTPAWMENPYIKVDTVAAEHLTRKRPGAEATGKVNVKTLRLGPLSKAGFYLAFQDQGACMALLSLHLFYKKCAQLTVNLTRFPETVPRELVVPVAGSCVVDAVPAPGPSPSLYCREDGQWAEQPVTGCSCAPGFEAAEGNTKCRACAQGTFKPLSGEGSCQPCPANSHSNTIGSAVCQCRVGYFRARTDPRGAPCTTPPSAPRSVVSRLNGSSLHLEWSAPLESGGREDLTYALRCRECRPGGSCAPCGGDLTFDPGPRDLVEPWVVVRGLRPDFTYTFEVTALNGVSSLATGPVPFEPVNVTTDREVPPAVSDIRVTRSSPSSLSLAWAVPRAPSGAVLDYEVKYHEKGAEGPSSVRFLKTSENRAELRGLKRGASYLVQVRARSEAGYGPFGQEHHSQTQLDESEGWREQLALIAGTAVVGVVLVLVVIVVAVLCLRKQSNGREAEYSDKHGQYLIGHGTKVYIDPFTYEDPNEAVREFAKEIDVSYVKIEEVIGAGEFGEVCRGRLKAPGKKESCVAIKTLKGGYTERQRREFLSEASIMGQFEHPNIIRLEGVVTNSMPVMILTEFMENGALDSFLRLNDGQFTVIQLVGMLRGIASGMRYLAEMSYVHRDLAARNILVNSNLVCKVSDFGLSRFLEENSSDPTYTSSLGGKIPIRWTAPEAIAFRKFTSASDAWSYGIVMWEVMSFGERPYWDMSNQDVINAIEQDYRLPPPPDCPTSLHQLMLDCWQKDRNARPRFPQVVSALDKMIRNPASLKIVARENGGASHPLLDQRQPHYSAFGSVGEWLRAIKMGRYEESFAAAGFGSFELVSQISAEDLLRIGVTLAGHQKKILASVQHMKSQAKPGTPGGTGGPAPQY

[17] = target: MINK (Homo sapiens, UniProt Q8N4C8); assay: Kinase selectivity panel; type: biochemical; details: [ATP] = 1 mM
Sequence of MINK (Q8N4C8 whole entry): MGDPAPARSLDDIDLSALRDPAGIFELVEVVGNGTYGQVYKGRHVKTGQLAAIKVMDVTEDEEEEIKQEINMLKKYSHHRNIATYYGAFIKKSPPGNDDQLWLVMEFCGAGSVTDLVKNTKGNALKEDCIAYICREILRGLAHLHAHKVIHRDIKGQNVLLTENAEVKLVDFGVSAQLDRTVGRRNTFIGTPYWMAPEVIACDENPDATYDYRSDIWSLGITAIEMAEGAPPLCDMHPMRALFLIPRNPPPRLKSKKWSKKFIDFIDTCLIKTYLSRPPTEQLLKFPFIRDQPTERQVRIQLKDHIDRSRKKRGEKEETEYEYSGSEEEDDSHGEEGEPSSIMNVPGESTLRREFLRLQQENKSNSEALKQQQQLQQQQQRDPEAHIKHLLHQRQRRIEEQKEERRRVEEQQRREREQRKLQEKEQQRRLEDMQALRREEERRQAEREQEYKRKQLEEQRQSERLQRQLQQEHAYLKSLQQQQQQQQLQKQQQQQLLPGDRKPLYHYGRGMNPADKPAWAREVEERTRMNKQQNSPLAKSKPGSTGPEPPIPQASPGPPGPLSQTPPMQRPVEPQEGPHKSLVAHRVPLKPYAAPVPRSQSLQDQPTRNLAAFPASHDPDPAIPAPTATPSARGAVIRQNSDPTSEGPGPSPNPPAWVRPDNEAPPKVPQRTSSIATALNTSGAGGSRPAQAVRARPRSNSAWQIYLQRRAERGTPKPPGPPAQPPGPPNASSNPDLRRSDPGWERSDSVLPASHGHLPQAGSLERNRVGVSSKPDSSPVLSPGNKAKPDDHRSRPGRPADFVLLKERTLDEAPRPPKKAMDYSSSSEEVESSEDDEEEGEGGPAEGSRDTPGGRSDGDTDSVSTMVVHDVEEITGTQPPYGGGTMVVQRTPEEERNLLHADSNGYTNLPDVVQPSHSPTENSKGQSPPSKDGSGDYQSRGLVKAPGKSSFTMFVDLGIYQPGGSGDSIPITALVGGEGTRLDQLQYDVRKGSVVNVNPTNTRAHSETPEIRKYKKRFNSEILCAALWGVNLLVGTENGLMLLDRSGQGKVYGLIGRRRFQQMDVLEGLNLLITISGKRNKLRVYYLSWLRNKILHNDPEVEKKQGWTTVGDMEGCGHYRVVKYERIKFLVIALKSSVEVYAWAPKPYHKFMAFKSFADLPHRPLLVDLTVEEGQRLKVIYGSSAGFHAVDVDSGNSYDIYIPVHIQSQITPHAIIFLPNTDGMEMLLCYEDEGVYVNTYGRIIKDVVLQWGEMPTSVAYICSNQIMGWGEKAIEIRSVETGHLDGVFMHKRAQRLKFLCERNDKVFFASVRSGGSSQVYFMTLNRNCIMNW

[18] = test system: primary bone marrow blasts from patients with AML; assay: Ex vivo treatment of primary bone marrow blasts from patients with AML (Western blot); type: cell-based, human
Experimental: The effects of INCB053914 on pBAD, pp70S6K, and p4E-BP1 levels and on the expression of PIM isozymes also were assessed ex vivo in primary bone marrow blasts (Stem Cell and Xenograft Core, University of Pennsylvania, Philadelphia, Pennsylvania) or in peripheral blood mononuclear cells (PBMCs) derived from whole blood samples obtained with informed written consent from adult patients with AML enrolled in an ongoing phase 1/2 dose-escalation trial, which was conducted in accordance with the study protocol approved by the respective institutional review boards or independent ethics committees. Only samples initially containing >90% viable cells were used (assessed by Trypan Blue staining). Immediately after thawing, the blasts were cultured in RPMI + 10% FBS with INCB053914 for 2 hours at 37°C, before lysis. For determinations of PIM2 expression in PBMCs, whole blood samples were treated overnight with increasing concentrations of INCB053914; total PBMCs were isolated by Ficoll-Paque density gradient centrifugation before lysis. The levels of PIM isozymes and phosphoproteins in cell lysates were detected by Western blotting using the same primary antibodies as above.

[19] = target: AKT1 (Homo sapiens, UniProt P31749); assay: Kinase selectivity panel; type: biochemical; details: [ATP] = 1 mM
Sequence of AKT1 (P31749 whole entry): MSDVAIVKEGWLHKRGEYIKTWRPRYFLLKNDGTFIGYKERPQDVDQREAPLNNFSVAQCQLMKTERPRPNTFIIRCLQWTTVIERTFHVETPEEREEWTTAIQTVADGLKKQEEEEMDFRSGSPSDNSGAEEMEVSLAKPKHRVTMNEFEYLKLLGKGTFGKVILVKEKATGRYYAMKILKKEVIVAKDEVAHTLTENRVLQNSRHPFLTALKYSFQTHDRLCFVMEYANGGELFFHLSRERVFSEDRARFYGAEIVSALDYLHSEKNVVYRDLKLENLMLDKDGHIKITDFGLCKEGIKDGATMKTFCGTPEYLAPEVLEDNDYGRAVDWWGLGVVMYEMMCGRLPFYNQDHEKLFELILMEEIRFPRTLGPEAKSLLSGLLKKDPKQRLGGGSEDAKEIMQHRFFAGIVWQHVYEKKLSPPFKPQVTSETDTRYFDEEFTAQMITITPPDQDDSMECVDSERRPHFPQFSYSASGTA

[20] = target: ZAP70 (Homo sapiens, UniProt P43403); assay: Kinase selectivity panel; type: biochemical; details: [ATP] = 1 mM
Sequence of ZAP70 (P43403 whole entry, species assumed): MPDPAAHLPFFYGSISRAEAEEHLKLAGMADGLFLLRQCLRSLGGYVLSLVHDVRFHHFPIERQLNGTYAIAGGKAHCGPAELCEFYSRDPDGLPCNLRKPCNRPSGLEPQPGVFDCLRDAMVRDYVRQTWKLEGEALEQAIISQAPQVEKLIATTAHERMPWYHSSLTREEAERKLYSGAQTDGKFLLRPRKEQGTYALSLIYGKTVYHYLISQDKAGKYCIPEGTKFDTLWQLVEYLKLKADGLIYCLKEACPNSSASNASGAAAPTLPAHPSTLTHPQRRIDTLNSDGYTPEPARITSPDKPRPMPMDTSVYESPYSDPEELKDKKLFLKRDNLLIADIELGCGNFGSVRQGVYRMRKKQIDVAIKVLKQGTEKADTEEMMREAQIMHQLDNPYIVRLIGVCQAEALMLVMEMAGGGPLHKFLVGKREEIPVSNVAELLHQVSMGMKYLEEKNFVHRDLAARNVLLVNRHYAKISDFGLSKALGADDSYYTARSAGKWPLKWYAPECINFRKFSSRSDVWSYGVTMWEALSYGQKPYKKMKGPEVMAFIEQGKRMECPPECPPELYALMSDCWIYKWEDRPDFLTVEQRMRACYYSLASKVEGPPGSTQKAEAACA

[21] = target: DYRK2 (Homo sapiens, UniProt Q92630); assay: Kinase selectivity panel; type: biochemical; details: [ATP] = 1 mM
Sequence of DYRK2 (Q92630 whole entry): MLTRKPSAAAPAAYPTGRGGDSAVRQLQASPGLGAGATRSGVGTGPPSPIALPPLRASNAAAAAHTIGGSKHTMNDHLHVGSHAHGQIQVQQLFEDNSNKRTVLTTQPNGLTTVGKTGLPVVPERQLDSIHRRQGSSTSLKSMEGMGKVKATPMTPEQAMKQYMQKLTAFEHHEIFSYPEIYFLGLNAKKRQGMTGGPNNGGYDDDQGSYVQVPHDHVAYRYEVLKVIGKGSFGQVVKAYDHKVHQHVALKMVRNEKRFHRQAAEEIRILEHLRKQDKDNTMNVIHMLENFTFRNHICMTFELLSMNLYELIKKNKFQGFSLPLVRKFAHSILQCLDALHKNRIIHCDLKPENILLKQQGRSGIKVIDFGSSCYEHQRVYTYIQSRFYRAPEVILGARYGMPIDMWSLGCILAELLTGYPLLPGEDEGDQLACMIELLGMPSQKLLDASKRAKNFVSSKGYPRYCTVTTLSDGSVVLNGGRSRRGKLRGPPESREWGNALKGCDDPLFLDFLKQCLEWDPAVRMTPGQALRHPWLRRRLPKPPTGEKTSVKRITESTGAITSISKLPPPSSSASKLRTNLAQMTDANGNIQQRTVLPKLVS

[22] = test system: phosphorylation of BAD in KMS-12-BM cells; assay: pBAD S112 ELISA in cells; type: cell-based; details: Homo sapiens, 2.5 hours, RPMI + 10% FBS, read-out: mean (± SD) IC50, pBAD inhibition
Experimental: (§3) The effect of INCB053914 on the level of pBAD was further investigated in KMS-12-BM and MOLM-16 cells, which were suspended in RPMI + 10% fetal bovine serum (FBS) and seeded into 96-well v-bottom polypropylene plates (Greiner, Munroe, North Carolina; 4 × 10^5 cells/well/100 μl) in the presence of 5 μl INCB053914 at a final concentration range of 0.1 nM to 1,000 nM. After 2.5 hours at 37°C and 5% CO2, the cells were lysed in 100 μl of cell extraction buffer (Cell Signaling Technology) containing phenylmethane sulfonyl fluoride, Halt^TM phosphatase, and protease inhibitors (Thermo Fisher Scientific, Waltham, Massachusetts; Calbiochem). The concentration of pBAD protein in the cell lysates was quantified using a Human pBAD S112 ELISA Kit (Cell Signaling Technology).

[23] = test system: phosphorylation of BAD in MOLM-16 cells; assay: pBAD S112 ELISA in cells; type: cell-based; details: Homo sapiens, MOLM16, 2.5 hours, RPMI + 10% FBS, read-out: mean (± SD) IC50, pBAD inhibition
Experimental: as §3

[24] = Homo sapiens, read-out: Mean (± SD) GI50

With `C[C@H]1CN(c2c(NC(=O)c3ccc(F)c(-c4c(F)cccc4F)n3)cnc3c2CC[C@H]3O)C[C@@H](N)[C@@H]1O.O=P(O)(O)O` [INCB053914, N-((R)-4-((3R,4R,5S)-3-amino-4-hydroxy-5-methylpiperidin-1-yl)-7-hydroxy-6,7-dihydro-5H-cyclopenta[b]pyridin-3-yl)-6-(2,6-difluorophenyl)-5-fluoropicolinamide phosphate] the GI50 [1, 24] was 81.8 ± 8.1 nM, the “Mean (SD) maximum inhibition” value [1] was 93.0 ± 2.5% and the GI50 ([2]; Homo sapiens, OCI-LY19, read-out: Mean (± SD) GI50) was 110 ± 53.6 nM. For the same compound, the “Mean (SD) maximum inhibition” value [2] was 69.7 ± 5.1%, the GI50 [3] was over 3000 nM and the GI50 [4] was over 3000 nM. For the same compound, the GI50 [5, 24] was 33.7 ± 24.3 nM, the “Mean (SD) maximum inhibition” value [5] was 94.3 ± 5.7% and the GI50 ([6]; Homo sapiens, NOMO-1, read-out: Mean (± SD) GI50) was 35.9 ± 9.3 nM. The “Mean (SD) maximum inhibition” value [6] was 84.6 ± 4.0%, the “Mean (SD) maximum inhibition” value [7] was 86.0 ± 3.7% and the GI50 ([7]; read-out: Mean (± SD) GI50) was 36.7 ± 9.9 nM. The GI50 [8, 24] was 70.7 ± 25.1 nM, the “Mean (SD) maximum inhibition” value [8] was 97.6 ± 1.5% and the GI50 ([9]; Homo sapiens, MV4-11, read-out: Mean (± SD) GI50) was 35.2 ± 41.7 nM. For the same compound, the “Mean (SD) maximum inhibition” value [9] was 94.3 ± 3.9%, the GI50 [10, 24] was 34.5 ± 10.1 nM and the “Mean (SD) maximum inhibition” value [10] was 83.6 ± 8.0%. For the same compound, the GI50 [11] was over 3000 nM, the GI50 [12] was over 3000 nM and the “Mean (SD) maximum inhibition” value [13] was 99.5 ± 0.6%. It also gave a GI50 ([13]; read-out: Mean (± SD) GI50) of 18.5 ± 6.1 nM, a GI50 [14] of over 3000 nM and a GI50 [15] of over 3000 nM. The IC50 [16] was over 20000 nM, the IC50 [17] was over 20000 nM and the “patients whose blasts showed decreases in BAD phosphorylation” value [18] was “two of four patients”. The PIM2 expression ([18]; 2 hours) was “increased PIM2 expression”, the “phosphorylation of p70S6K and 4E-BP1” value ([18]; 2 hours) was “decreased phosphorylation of p70S6K and 4E-BP1” and the IC50 [19] was over 20000 nM. It also gave an IC50 [20] of over 20000 nM, an IC50 [21] of over 20000 nM and an IC50 [22] of 27 nM. For the same compound, the IC50 [23] was 4 nM.
